The numbers were not newly measured in PubChem BioAssay AID1259410 (Chemical Carcinogenesis Research Information System (CCRIS), 2018), which cites them from elsewhere.

The data set deals with rodent tumor promotion studies, tumor incidence. Briefly: CCRIS tumor promotion studies.

Structures are written as SMILES.

For the molecule `O=C1O[C@H]([C@@H](O)CO)C(O)=C1O`, the outcome is on record as “colon: tumor” (Carcinogen: 1,2-DIMETHYLHYDRAZINE, 540-73-8, Doses [Carcinogen]: 20 MG/KG 1/WK FOR 4 WK, Doses [Promoter]: 0, 5% IN DIET FOR 36 WK (STUDY DURATION: 40 WK), Route [Carcinogen]: SUBCUTANEOUS, Route [Promoter]: ORAL, Species: RAT, Strain/Sex: F344/MALE); “forestomach: squamous cell carcinoma” (Carcinogen: BUTYLATED HYDROXYANISOLE, 25013-16-5, Doses [Carcinogen]: 2% IN DIET FOR 1 YR, Doses [Promoter]: 0, 2% IN DIET CONCOMITANTLY WITH CARCINOGEN FOR 1 YR (STUDY DURATION: 1 YR), Route [Carcinogen]: ORAL, Route [Promoter]: ORAL, Species: RAT, Strain/Sex: F344/MALE); “urinary bladder: papilloma; forestomach: carcinoma” (Carcinogen: METHYLNITROSOUREA, 684-93-5, Doses [Carcinogen]: 20 MG/KG 2/WK FOR 4 WK, Doses [Promoter]: 0, 5% IN DIET BEGINNING POST CARCINOGEN TREATMENT AND CONTINUING FOR 32 WK (STUDY DURATION: 36 WK), Route [Carcinogen]: INTRAPERITONEAL, Route [Promoter]: ORAL, Species: RAT, Strain/Sex: F344/MALE); “bladder: papilloma” (Carcinogen: N-BUTYL-N-4(HYDROXYBUTYL)NITROSAMINE, 3817-11-6, Doses [Carcinogen]: 0.05% IN DRINKING WATER FOR 2 WK, Doses [Promoter]: 0, 5% IN DIET STARTING POST CARCINOGEN AND CONTINUING FOR 22 WK, LEFT URETER LIGATED 8 D POST CARCINOGEN (STUDY DURATION, Route [Carcinogen]: ORAL, Route [Promoter]: ORAL, Species: RAT, Strain/Sex: F344/MALE); “urinary bladder: papilloma, carcinoma” (Carcinogen: N-BUTYL-N-(4-HYDROXYBUTYL)-NITROSAMINE, 3817-11-6, Doses [Carcinogen]: 0.05% IN DRINKING WATER FOR 4 WK, Doses [Promoter]: 0, 5% IN DIET FOR 32 WK BEGINNING POST CARCINOGEN TREATMENT (STUDY DURATION: 36 WK), Route [Carcinogen]: ORAL, Route [Promoter]: ORAL, Species: RAT, Strain/Sex: F344/MALE); “urinary bladder: papilloma, carcinoma” (Carcinogen: N-BUTYL-N-(4-HYDROXYBUTYL)-NITROSAMINE, 3817-11-6, Doses [Carcinogen]: 0.05% IN DRINKING WATER FOR 4 WK, Doses [Promoter]: 0, 5% IN DIET FOR 32 WK BEGINNING POST CARCINOGEN TREATMENT (STUDY DURATION: 36 WK), Route [Carcinogen]: ORAL, Route [Promoter]: ORAL, Species: RAT, Strain/Sex: LEW/MALE). Also, the outcome reads like this: (Carcinogen: N-BUTYL-N-(4-HYDROXYBUTYL)NITROSAMINE [3817-11-6], Doses [Carcinogen]: 0.05% IN DRINKING WATER FOR 4 WK (STUDY DURATION: 40 WK), Doses [Promoter]: 2.5% IN DIET FOR 18 WK BEGINNING IMMEDIATELY POST LAST CARCINOGEN DOSE (STUDY DURATION: 40 WK), Route [Carcinogen]: ORAL, Route [Promoter]: ORAL, Species: RAT, Strain/Sex: F344/MALE) “urinary bladder: tumor”; (Carcinogen: N-BUTYL-N-(4-HYDROXYBUTYL)NITROSAMINE, 3817-11-6, Doses [Carcinogen]: 0.05% IN DRINKING WATER FOR 2 WK, Doses [Promoter]: 0, 5% IN DIET FOR 32 WK BEGINNING POST CARCINOGEN TREATMENT (STUDY DURATION: 34 WK), Route [Carcinogen]: ORAL, Route [Promoter]: ORAL, Species: RAT, Strain/Sex: F344/MALE) “urinary bladder: papilloma, carcinoma”; (Carcinogen: N-BUTYL-N-(4-HYDROXYBUTYL)NITROSAMINE, 3817-11-6, Doses [Carcinogen]: 0.05% IN DRINKING WATER FOR 4 WK, Doses [Promoter]: 0, 5% IN BASAL DIET CONTAINING 1.5% SODIUM BICARBONATE FOR 32 WK (STUDY DURATION: 36 WK), Route [Carcinogen]: ORAL, Route [Promoter]: ORAL, Species: RAT, Strain/Sex: F344/MALE) “urinary bladder: carcinoma”; (Carcinogen: N-BUTYL-N-(4-HYDROXYBUTYL)NITROSAMINE, 3817-11-6, Doses [Carcinogen]: 0.05% IN DRINKING WATER FOR 4 WK, Doses [Promoter]: 0, 5% IN DIET FOR 32 WK (STUDY DURATION: 36 WK), Route [Carcinogen]: ORAL, Route [Promoter]: ORAL, Species: RAT, Strain/Sex: F344/MALE) “urinary bladder: papilloma, carcinoma”; (Carcinogen: N-BUTYL-N-(4-HYDROXYBUTYL)NITROSAMINE, 3817-11-6, Doses [Carcinogen]: 0.05% IN DRINKING WATER FOR 4 WK, Doses [Promoter]: 0, 5% IN DIET FOR 32 WK BEGINNING POST CARCINOGEN TREATMENT (STUDY DURATION: 36 WK), Route [Carcinogen]: ORAL, Route [Promoter]: ORAL, Species: RATS, Strain/Sex: F344/SHI/MALE) “bladder: papilloma, carcinoma”; (Carcinogen: N-BUTYL-N-(4-HYDROXYBUTYL)NITROSAMINE, 3817-11-6, Doses [Carcinogen]: 0.05% IN DRINKING WATER FOR 4 WK, Doses [Promoter]: 0, 5% IN DIET FOR 32 WK POST CARCINOGEN DOSE (STUDY DURATION: 36 WK), Route [Carcinogen]: ORAL, Route [Promoter]: ORAL, Species: RAT, Strain/Sex: F344/MALE) “bladder: carcinoma or papilloma”. The outcome is, setting by setting: (Carcinogen: N-METHYL-N-NITROSOUREA, 684-93-5, Doses [Carcinogen]: 20 MG/KG 2/WK FOR 4 WK, Doses [Promoter]: 0, 5% IN DIET FOR 32 WK (STUDY DURATION: 32 WK), Route [Carcinogen]: INTRAPERITONEAL, Route [Promoter]: ORAL, Species: RAT, Strain/Sex: F344/MALE) “forestomach: papilloma, carcinoma; urinary bladder: papilloma, carcinoma”; (Carcinogen: N-[4-(5-NITRO-2-FURYL)-2-THIAZOLYL]FORMAMIDE, 24554-26-5, Doses [Carcinogen]: 0.2% IN DIET FOR 6 WK, Doses [Promoter]: 0, 5% IN PROLAB DIET FOR 72 WK BEGINNING POST CARCINOGEN TREATMENT (STUDY DURATION: 78 WK), Route [Carcinogen]: ORAL, Route [Promoter]: ORAL, Species: RAT, Strain/Sex: F344/MALE) “urinary bladder: carcinoma, carcinoma or papilloma”; (Carcinogen: N-bis(2-hydroxypropyl)nitrosamine (DHPN) (53609-64-6), Doses [Carcinogen]: 0.1% (w/v) in drinking water for 3 wk, then surgery for acid reflux esophagitis, study duration 34 wk, Doses [Promoter]: 0 (basal diet), 1% ascorbic acid, 1% ascorbic acid with 0.2% sodium nitrite, study duration 32 wk after first promoter d, Doses [Promoter]: 0 (basal diet), 1% ascorbic acid, 1% ascorbic acid with 0.2% sodium nitrite, study duration 32 wk after first promoter d, Route [Carcinogen]: Oral, Route [Promoter]: Oral, Species: Rat, Strain/Sex: F344/Male (24/group)) “esophagus (p1-p4): papilloma; significant only for combined treatment in p4 segm”; (Carcinogen: N-methyl-N'-nitro-N-nitrosoguanidine (70-25-7), Doses [Carcinogen]: 0.01% in drinking water for 10 wk for initiation of glandular stomach tumors, 100 mg/kg intragastrically after 16 hr st, Doses [Promoter]: 0.1% or 1.0% in the diet from wk 11 to end of study in combination with 0.05%, 0.1%, or 0.2% sodium nitrite in drinki, Route [Carcinogen]: Oral and Intragastric, Route [Promoter]: Oral, Species: Rat, Strain/Sex: F344/Male (15/15)/(14/15)(15/15)(15/15)(15/15)(15/15)(14/15)) “forestomach: squamous cell carcinoma, papilloma increased in incidence and/or se”.

Consider `ClC(Cl)=C(Cl)C(Cl)=C(Cl)Cl`, for which, under “Carcinogen: N-ETHYL-N-HYDROXYETHYLNITROSAMINE, 13147-25-6, Doses [Carcinogen]: 0.1% IN DRINKING WATER FOR 2 WK, Doses [Promoter]: 0, 0.1% IN DIET FOR 30 WK BEGINNING POST CARCINOGEN TREATMENT (STUDY DURATION: 32 WK), Route [Carcinogen]: ORAL, Route [Promoter]: ORAL, Species: RAT, Strain/Sex: WISTAR/MALE”, the outcome was “kidney: renal cell tumor”.

In the case of `Oc1ccc2c(c1)CCCC2`, the outcome (Carcinogen: 7,12-DIMETHYLBENZ(A)ANTHRACENE, Doses [Carcinogen]: TOP, Route [Carcinogen]: DERMAL, Route [Promoter]: DERMAL, Species: MOUSE, Strain/Sex: FEMALE) was “integumentary system (skin)”.

Take `N#CS`: the outcome (Carcinogen: N-BIS(2-HYDROXYPROPYL)NITROSAMINE, 53609-64-6, Doses [Carcinogen]: 280 MG/100 G/BW ONCE, Doses [Promoter]: 0, 0.5% IN DRINKING WATER FOR 25 WK (STUDY DURATION: 26 WK), Route [Carcinogen]: SUBCUTANEOUS, Route [Promoter]: ORAL, Species: RAT, Strain/Sex: F344/MALE) is recorded as “thyroid: neoplasm”.

With `CCCC[C@@H](C)[C@@H](OC(=O)C[C@@H](CC(=O)O)C(=O)O)[C@H](C[C@@H](C)C[C@H](O)CCCC[C@@H](O)C[C@H](O)[C@H](C)N)OC(=O)C[C@@H](CC(=O)O)C(=O)O`, the outcome (Doses [Carcinogen]: 100 PPB IN WATER FOR 30 MIN, Doses [Promoter]: 0, 23, 104 PPM IN DIET FOR 42 WK BEGINNING 1 MO POST CARCINOGEN TREATMENT (STUDY DURATION: 64 WK), Doses [Promoter]: 0, 23, 104 PPM IN DIET FOR 42 WK BEGINNING 1 MO POST CARCINOGEN TREATMENT (STUDY DURATION: 64 WK), Route [Carcinogen]: IMMERSION, Route [Promoter]: ORAL, Species: FISH, Strain/Sex: SHASTA RAINBOW TROUT/MALE,FEMALE) is “liver: tumor”.
